Tests used:
[1] = biological target: Full length EN PA (influenza endonuclease) (Influenza A virus, UniProt P15659); test: EN PA FRET inhibition assay; type: biochemical; details: 50 Nm FRET probe, mean of a minimum of two independent experiments, read-out: Potency (IC50 class)
[2] = test system: Influenza strain A549_A/WSN/33 (H1N1); test: Influenza antiviral assay (neuraminidase fluorescence readout in A549 or MDCK cells); type: cell-based; details: Influenza A virus, read-out: % Inhibition (EC50 class)

Compound | IC50 [1] [µM] | EC50 [2] [µM]
CCCN1C[C@H](C(c2cccc(F)c2)c2cccc(F)c2)n2ncc(=O)c(OC(C)=O)c2C1=O (single isomer, unassigned) [Compound 1] | < 0.25 | < 20
CN1C[C@H]([C@@H](c2ccccc2)n2cc(C#CC3CC3)c(C#CC3CC3)n2)n2ncc(=O)c(O)c2C1=O (single isomer, unassigned) [Compound 13] | < 0.25 | < 20
CN1C[C@H]([C@@H](c2ccccc2)n2cc(C#CCO)c(C#CCO)n2)n2ncc(=O)c(O)c2C1=O (single isomer, unassigned) [Compound 14] | < 0.25 | < 20
CC(C)OC(=O)OCOc1c2n(ncc1=O)[C@@H](C(c1ccccc1)c1ccccc1)CN(C(C)C)C2=O [Compound 2] | ≥ 1 | < 20
CC(=O)Oc1c2n(ncc1=O)[C@@H](C1c3cccc(F)c3CCc3c(F)cccc31)CN(C(C)C)C2=O [Compound 3] | < 0.25 | < 20
CC(C)N1C[C@H](C(c2ccccc2)c2ccccc2)n2ncc(=O)c(O[C@@H]3OC(C(=O)O)[C@@H](O)C(O)C3O)c2C1=O (stereo partly drawn) [Compound 4] | < 0.25 | < 20
CN1CC(C(c2ccccc2)c2cn(C)c3cc(F)ccc23)n2ncc(=O)c(O)c2C1=O (stereo not drawn) [Compound 5] | < 0.25 | < 20
CCn1cc([C@@H](c2ccccc2)[C@H]2CN(C)C(=O)c3c(O)c(=O)cnn32)c2ccc(Br)cc21 [Compound 6] | 0.25 to 1 | < 20
CN1C[C@H]([C@@H](c2ccccc2)n2cc(I)c(I)n2)n2ncc(=O)c(O)c2C1=O [Compound 7] | < 0.25 | < 20
CN1C[C@H]([C@H](c2ccccc2)n2cc(I)c(I)n2)n2ncc(=O)c(O)c2C1=O [Compound 8] | < 0.25 | < 20
CC(C)N1C[C@H](C(c2cccs2)c2cccs2)n2ncc(=O)c(O)c2C1=O [Compound 9] | < 0.25 | < 20
O=C1NC[C@H](C(c2ccccc2)c2ccccc2)n2ncc(=O)c(O)c21 [Compound 10] | < 0.25 | < 20
C#Cc1cccc(C(c2cccc(C#C)c2)C2CN(C(C)C)C(=O)c3c(O)c(=O)cnn32)c1 (stereo not drawn) [Compound 11] | < 0.25 | < 20
CC#Cc1cn([C@@H](c2ccccc2)[C@H]2CN(C)C(=O)c3c(O)c(=O)cnn32)nc1C#CC [Compound 12] | 0.25 to 1 | < 20
C#Cc1cccc([C@@H](c2ccccc2)[C@H]2CN(C(C)C)C(=O)c3c(O)c(=O)cnn32)c1 [Compound 15] | < 0.25 | < 20
C#Cc1cn([C@@H](c2ccccc2)[C@H]2CN(C)C(=O)c3c(O)c(=O)cnn32)nc1C#C [Compound 16] | < 0.25 | < 20
[2H]C([2H])([2H])C([2H])(N1C[C@H](C(c2ccccc2)c2ccccc2)n2ncc(=O)c(O)c2C1=O)C([2H])([2H])[2H] [Compound 17] | < 0.25 | < 20
CCCCN1C[C@H](C(c2ccccc2)c2ccccc2)n2ncc(=O)c(O)c2C1=O [Compound 18] | < 0.25 | < 20
CCCN1C[C@H](C2c3ccccc3CCc3ccccc32)n2ncc(=O)c(O)c2C1=O [Compound 19] | < 0.25 | < 20
CCCN1C[C@@H](C2c3ccccc3CCc3ccccc32)n2ncc(=O)c(O)c2C1=O [Compound 20] | 0.25 to 1 | < 20
CCCN1C[C@H](C2c3cccc(F)c3CCc3c(F)cccc32)n2ncc(=O)c(O)c2C1=O [Compound 21] | < 0.25 | < 20
CCCN1C[C@@H](C2c3cccc(F)c3CCc3c(F)cccc32)n2ncc(=O)c(O)c2C1=O [Compound 22] | ≥ 1 | < 20
CC(C)C(=O)Oc1c2n(ncc1=O)[C@@H](C1c3ccccc3CCc3ccccc31)CN(C(C)C)C2=O [Compound 23] | < 0.25 | < 20
CC(=O)Oc1c2n(ncc1=O)[C@@H](C1c3ccccc3CCc3ccccc31)CN(C(C)C)C2=O [Compound 24] | < 0.25 | < 20
CCCN1C[C@H](C2c3ccccc3CCc3ccccc32)n2ncc(=O)c(OC(C)=O)c2C1=O [Compound 25] | < 0.25 | < 20
CCCN1C[C@H](C2c3ccccc3CCc3ccccc32)n2ncc(=O)c(OC(=O)C(C)C)c2C1=O [Compound 26] | < 0.25 | < 20

Compound | IC50 [1] [µM] | EC50 [2] [µM]
CCN1C[C@H](C2c3ccccc3CCc3ccccc32)n2ncc(=O)c(OC(C)=O)c2C1=O [Compound 27] | < 0.25 | < 20
CCN1C[C@H](C2c3ccccc3CCc3ccccc32)n2ncc(=O)c(OC(=O)C(C)C)c2C1=O [Compound 28] | < 0.25 | 
CCCN1C[C@H](C2c3cccc(F)c3CCc3c(F)cccc32)n2ncc(=O)c(OC(C)=O)c2C1=O [Compound 29] | < 0.25 | < 20
CC(C)OC(=O)Oc1c2n(ncc1=O)[C@@H](C1c3cccc(F)c3CCc3c(F)cccc31)CN(C(C)C)C2=O [Compound 30] | < 0.25 | < 20
CC(C)COC(=O)Oc1c2n(ncc1=O)[C@@H](C1c3cccc(F)c3CCc3c(F)cccc31)CN(C(C)C)C2=O [Compound 31] | < 0.25 | < 20
CC(C)N1C[C@H]([C@@H](c2ccccc2)n2cc(C#CC3CC3)c(C#CC3CC3)n2)n2ncc(=O)c(O)c2C1=O [Compound 33] | 0.25 to 1 | < 20
CC(C)N1C[C@H]([C@@H](c2ccccc2)n2cc(C#CCO)c(C#CCO)n2)n2ncc(=O)c(O)c2C1=O [Compound 34] | < 0.25 | < 20
CN1C[C@H]([C@H](c2ccccc2)n2cc(C#CC3CC3)c(C#CC3CC3)n2)n2ncc(=O)c(O)c2C1=O [Compound 35] | ≥ 1 | < 20
CN1C[C@H]([C@H](c2ccccc2)n2cc(C#CCO)c(C#CCO)n2)n2ncc(=O)c(O)c2C1=O [Compound 36] | < 0.25 | < 20
Cc1cccc(C(c2cccc(C)c2)[C@H]2CN(C(C)C)C(=O)c3c(O)c(=O)cnn32)c1 [Compound 37] | < 0.25 | < 20
O=C1c2c(O)c(=O)cnn2[C@@H](C(c2ccccc2)c2ccccc2)CN1Cc1ccccc1 [Compound 38] | < 0.25 | < 20
CC(C)[C@H](N)C(=O)OCOc1c2n(ncc1=O)[C@@H](C1c3cccc(F)c3CCc3c(F)cccc31)CN(C(C)C)C2=O [Compound 39] | < 0.25 | < 20
CC(C)[C@H](N)C(=O)OCOc1c2n(ncc1=O)[C@@H](C1c3ccccc3CCc3ccccc31)CN(C(C)C)C2=O [Compound 40] | < 0.25 | < 20
CC(C)OC(=O)OCOc1c2n(ncc1=O)[C@@H](C1c3cccc(F)c3CCc3c(F)cccc31)CN(C(C)C)C2=O [Compound 41] | < 0.25 | < 20
CN1C[C@H]([C@H](c2ccccc2)n2cc(C#CC3(O)CCC3)c(C#CC3(O)CCC3)n2)n2ncc(=O)c(O)c2C1=O [Compound 46] | 0.25 to 1 | 20 to 100
CCn1cc([C@@H](c2ccccc2)[C@H]2CN(C)C(=O)c3c(O)c(=O)cnn32)c2ccc(CO)cc21 [Compound 48] | ≥ 1 | 
CCn1cc([C@H](c2ccccc2)[C@H]2CN(C)C(=O)c3c(O)c(=O)cnn32)c2ccc(CO)cc21 [Compound 49] | ≥ 1 | 
CCCN1C[C@H](C(c2cccc(Cl)c2)c2cccc(Cl)c2)n2ncc(=O)c(OC(C)=O)c2C1=O [Compound 54] | < 0.25 | < 20
CCCN1C[C@H](C2c3cccc(Cl)c3CCc3c(Cl)cccc32)n2ncc(=O)c(O)c2C1=O [Compound 99] | < 0.25 | < 20
CN1C[C@H](C2c3cccc(Cl)c3CCc3c(Cl)cccc32)n2ncc(=O)c(O)c2C1=O [Compound 100] | < 0.25 | < 20
CC(C)N1C[C@H](C2c3ccc(F)cc3CCc3cc(F)ccc32)n2ncc(=O)c(O)c2C1=O [Compound 101] | < 0.25 | < 20
CCCN1C[C@H](C2c3ccc(F)cc3CCc3cc(F)ccc32)n2ncc(=O)c(O)c2C1=O [Compound 102] | < 0.25 | < 20
CC(C)N1C[C@H](C2c3ccc(Cl)cc3CCc3cc(Cl)ccc32)n2ncc(=O)c(O)c2C1=O [Compound 103] | < 0.25 | < 20
CCCN1C[C@H](C2c3ccc(Cl)cc3CCc3cc(Cl)ccc32)n2ncc(=O)c(O)c2C1=O [Compound 104] | < 0.25 | < 20
CC(=O)Oc1c2n(ncc1=O)[C@@H](C(c1cccc(Cl)c1)c1cccc(Cl)c1)CN(C(C)C)C2=O [Compound 107] | < 0.25 | < 20
